Test system: cherries
Experiment: Cherry firmness after cold storage, pre-harvest application
Assay type: in vivo
Settings: after 12 days of cold storage (33° F.); sprayed 2 weeks before harvest; calcium chloride 0.5% w/v, Formulation III 10% (v/v)
Method: 1. Effect of Pre-Harvest Application of Matrix III and Calcium on Firmness. The effect of the Formulation III (Matrix III, see EXAMPLE 15) on cherry firmness was determined in the lab with a firmness meter. Firmness is a function of water content. […] After drying, a 10% (v/v) dilution of Formulation III was applied to half of the trees. […] Increased firmness was also observed in a larger orchard trial with ‘Bing’ and ‘Van’ cherries.

Structure (SMILES): [Ca+2].[Cl-].[Cl-] [calcium chloride, Calcium chloride]
- firmness: 277.1 mg/mm^2

From US20040146617A1, “Compositions and methods for suppressing cracking and water loss from cherries” (priority 1998, published 2004)
